Key:
Experiment in all cases: relative viability (nuclei count vs DMSO), 5 days (fraction); higher = more cells survive
[1] = compound: CCN1C(=O)C2=CC(=C(N=C2N(C1=O)C3CC3)N)C(=O)N + Nc1nc2[nH]cc(CCc3ccc(C(=O)N[C@@H](CCC(=O)O)C(=O)O)cc3)c2c(=O)[nH]1 [Pemetrexed] (partner 0.2 µM)
Summary of the method: (§1)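 Relative viability equals treated-well nuclei counts divided by vehicle-well nuclei counts. Counts came from 4× images of lung cancer cell lines grown in 1536-well plates for 5 days after pin-tool dosing on the day after seeding. Dosing used one drug alone or a fixed anchor-drug dose plus five library-drug doses (not always all listed) in √10 steps, and values are medians of duplicate plates.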

[2] = compound: CCN1C(=O)C2=CC(=C(N=C2N(C1=O)C3CC3)N)C(=O)N + NC(=O)Nc1cc(-c2cccc(F)c2)sc1C(=O)N[C@H]1CCCNC1 [AZD7762] (partner 0.2 µM)
Summary of the method: as §1

[3] = compound: CCN1C(=O)C2=CC(=C(N=C2N(C1=O)C3CC3)N)C(=O)N + CC(=O)c1c(C)c2cnc(Nc3ccc(N4CCNCC4)cn3)nc2n(C2CCCC2)c1=O [Palbociclib] (partner 0.5 µM)
Summary of the method: as §1

[4] = compound: CCN1C(=O)C2=CC(=C(N=C2N(C1=O)C3CC3)N)C(=O)N + Nc1ncn([C@H]2C[C@H](O)[C@@H](CO)O2)c(=O)n1 [Decitabine] (partner 2 µM)
Summary of the method: as §1

[5] = compound: CCN1C(=O)C2=CC(=C(N=C2N(C1=O)C3CC3)N)C(=O)N + CC(=O)Nc1cccc(-n2c(=O)n(C3CC3)c(=O)c3c(Nc4ccc(I)cc4F)n(C)c(=O)c(C)c32)c1 [Trametinib] (partner 0.02 µM)
Summary of the method: as §1

[6] = compound: CCN1C(=O)C2=CC(=C(N=C2N(C1=O)C3CC3)N)C(=O)N + O=C(CCCCCCC(=O)Nc1ccccc1)NO [Vorinostat] (partner 1 µM)
Summary of the method: as §1

[7] = compound: CCN1C(=O)C2=CC(=C(N=C2N(C1=O)C3CC3)N)C(=O)N + COc1cccc2cc(-c3nc([C@H]4CC[C@H](C(=O)O)CC4)n4ncnc(N)c34)[nH]c12 [OSI-027] (partner 0.5 µM)
Summary of the method: as §1

[8] = compound: CCN1C(=O)C2=CC(=C(N=C2N(C1=O)C3CC3)N)C(=O)N + Cc1cc(Nc2cc(N3CCN(C)CC3)nc(Sc3ccc(NC(=O)C4CC4)cc3)n2)n[nH]1 [Tozasertib] (partner 0.1 µM)
Summary of the method: as §1

[9] = compound: CCN1C(=O)C2=CC(=C(N=C2N(C1=O)C3CC3)N)C(=O)N + O=C(c1cc(Cc2n[nH]c(=O)c3ccccc23)ccc1F)N1CCN(C(=O)C2CC2)CC1 [Olaparib] (partner 8 µM)
Summary of the method: as §1

[10] = compound: CCN1C(=O)C2=CC(=C(N=C2N(C1=O)C3CC3)N)C(=O)N
Summary of the method: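 Hoechst staining, done together with fixation and permeabilisation, marked nuclei for 4× imaging and MetaXpress counting. This followed 5 days without medium change after lung cancer cell lines, kept overnight at 37 °C in 1536-well plates, were pinned with five library-drug doses (not always all listed) spaced by √10 on vehicle-anchored plates. Viability is the ratio of treated-well to vehicle-well nuclei, expressed as a median across plates. Plates passed only at control CV below 25% with at least one doubling.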

[11] = compound: CCN1C(=O)C2=CC(=C(N=C2N(C1=O)C3CC3)N)C(=O)N + Cc1nc(Nc2ncc(C(=O)Nc3c(C)cccc3Cl)s2)cc(N2CCN(CCO)CC2)n1 [Dasatinib] (partner 0.075 µM)
Summary of the method: as §1

[12] = compound: CCN1C(=O)C2=CC(=C(N=C2N(C1=O)C3CC3)N)C(=O)N + CCNC(=O)c1noc(-c2cc(C(C)C)c(O)cc2O)c1-c1ccc(CN2CCOCC2)cc1 [Luminespib] (partner 0.01 µM)
Summary of the method: as §1

[13] = compound: CCN1C(=O)C2=CC(=C(N=C2N(C1=O)C3CC3)N)C(=O)N + COc1cc2c(Oc3ccc(NC(=O)C4(C(=O)Nc5ccc(F)cc5)CC4)cc3F)ccnc2cc1OCCCN1CCOCC1 [Foretinib] (partner 0.25 µM)
Summary of the method: as §1

[14] = compound: CCN1C(=O)C2=CC(=C(N=C2N(C1=O)C3CC3)N)C(=O)N + N=C(N)NC(=N)NCCc1ccccc1 [Phenformin] (partner 250 µM)
Summary of the method: as §1

NCI-H1648
relative viability ([1]; first compound 0.253 µM): 0.735 | relative viability ([1]; first compound 2.53 µM): 0.64 | relative viability ([1]; first compound 8 µM): 0.585 | relative viability ([2]; first compound 0.253 µM): 0.706 | relative viability ([2]; first compound 2.53 µM): 0.646 | relative viability ([2]; first compound 8 µM): 0.568 | relative viability ([3]; first compound 0.253 µM): 0.301 | relative viability ([3]; first compound 2.53 µM): 0.243 | relative viability ([3]; first compound 8 µM): 0.273 | relative viability ([4]; first compound 0.253 µM): 0.394 | relative viability ([4]; first compound 2.53 µM): 0.429 | relative viability ([4]; first compound 8 µM): 0.445 | relative viability ([5]; first compound 0.253 µM): 0.45 | relative viability ([5]; first compound 2.53 µM): 0.245 | relative viability ([5]; first compound 8 µM): 0.386 | relative viability ([6]; first compound 0.253 µM): 0.488 | relative viability ([6]; first compound 2.53 µM): 0.219 | relative viability ([6]; first compound 8 µM): 0.9 | relative viability ([7]; first compound 0.253 µM): 0.265 | relative viability ([7]; first compound 0.8 µM): 0.271 | relative viability ([7]; first compound 2.53 µM): 0.259 | relative viability ([7]; first compound 8 µM): 0.278 | relative viability ([8]; first compound 0.253 µM): 0.416 | relative viability ([8]; first compound 0.8 µM): 0.526 | relative viability ([8]; first compound 2.53 µM): 0.423 | relative viability ([8]; first compound 8 µM): 0.53 | relative viability ([9]; first compound 0.253 µM): 0.914 | relative viability ([9]; first compound 2.53 µM): 1.07 | relative viability ([9]; first compound 8 µM): 0.883 | relative viability ([10]; 0.253 µM): 0.835 | relative viability ([10]; 0.8 µM): 0.932 | relative viability ([10]; 2.53 µM): 0.89 | relative viability ([10]; 8 µM): 0.851

NCI-H2342
relative viability ([11]; first compound 0.253 µM): 0.27 | relative viability ([11]; first compound 0.8 µM): 0.294 | relative viability ([11]; first compound 2.53 µM): 0.349 | relative viability ([11]; first compound 8 µM): 0.323 | relative viability ([1]; first compound 0.253 µM): 0.781 | relative viability ([1]; first compound 0.8 µM): 0.746 | relative viability ([1]; first compound 2.53 µM): 0.802 | relative viability ([1]; first compound 8 µM): 0.817 | relative viability ([2]; first compound 0.253 µM): 0.527 | relative viability ([2]; first compound 0.8 µM): 0.426 | relative viability ([2]; first compound 2.53 µM): 0.514 | relative viability ([2]; first compound 8 µM): 0.503 | relative viability ([3]; first compound 0.253 µM): 0.549 | relative viability ([3]; first compound 0.8 µM): 0.533 | relative viability ([3]; first compound 2.53 µM): 0.426 | relative viability ([3]; first compound 8 µM): 0.461 | relative viability ([12]; first compound 0.253 µM): 0.756 | relative viability ([12]; first compound 0.8 µM): 0.761 | relative viability ([12]; first compound 2.53 µM): 0.747 | relative viability ([12]; first compound 8 µM): 0.784 | relative viability ([4]; first compound 0.253 µM): 0.642 | relative viability ([4]; first compound 0.8 µM): 0.729 | relative viability ([4]; first compound 2.53 µM): 0.701 | relative viability ([4]; first compound 8 µM): 0.766 | relative viability ([5]; first compound 0.253 µM): 0.795 | relative viability ([5]; first compound 0.8 µM): 0.8 | relative viability ([5]; first compound 2.53 µM): 0.756 | relative viability ([5]; first compound 8 µM): 0.857 | relative viability ([13]; first compound 0.253 µM): 1.08 | relative viability ([13]; first compound 0.8 µM): 0.941 | relative viability ([13]; first compound 2.53 µM): 1.1 | relative viability ([13]; first compound 8 µM): 1.03 | relative viability ([14]; first compound 0.253 µM): 0.556 | relative viability ([14]; first compound 0.8 µM): 0.547 | relative viability ([14]; first compound 2.53 µM): 0.666 | relative viability ([14]; first compound 8 µM): 0.532 | relative viability ([6]; first compound 0.253 µM): 0.719 | relative viability ([6]; first compound 0.8 µM): 0.812 | relative viability ([6]; first compound 2.53 µM): 0.817 | relative viability ([6]; first compound 8 µM): 0.645 | relative viability ([7]; first compound 0.253 µM): 0.612 | relative viability ([7]; first compound 0.8 µM): 0.568 | relative viability ([7]; first compound 2.53 µM): 0.704 | relative viability ([7]; first compound 8 µM): 0.524 | relative viability ([8]; first compound 0.253 µM): 0.512 | relative viability ([8]; first compound 0.8 µM): 0.533 | relative viability ([8]; first compound 2.53 µM): 0.544 | relative viability ([8]; first compound 8 µM): 0.54 | relative viability ([9]; first compound 0.253 µM): 0.42 | relative viability ([9]; first compound 0.8 µM): 0.467 | relative viability ([9]; first compound 2.53 µM): 0.421 | relative viability ([9]; first compound 8 µM): 0.492 | relative viability ([10]; 0.253 µM): 1.04 | relative viability ([10]; 0.8 µM): 0.821 | relative viability ([10]; 2.53 µM): 0.907 | relative viability ([10]; 8 µM): 0.948

— the supplement of paper PMC10307832
